Here are results for two compounds from patent US10934244B2, “Compounds for use in treating neuromuscular disorders” (NMD PHARMA A/S, priority 2015, dated 2021).

The AUC(0-t) is the area under the concentration-time curve up to a stated or last time point. For orientation: Cmax means the maximum level reached in the sampled fluid or tissue.

In data set [1] the test system is isolated rat soleus muscles. Put plainly: Recovery of nerve-stimulated force in isolated rat soleus muscles exposed to sub-maximal tubocurarine. In kind it is cell-based. The procedure:
(§1) Experiments were performed using rat soleus muscles from either young (4-wk-old) or adult Wistar rats (12-14-week-old). Animal handling, killing and isolation of muscle is described elsewhere^26 All experiments were performed using normal Krebs-Ringer bicarbonate solution^26 (NKR). In solutions with elevated Mg^2+, MgCl2 was added to NKR-solution causing minor increases in osmolarity and ionic strength. In solutions with elevated K^+, 4 mM NaCl was replaced by 4 mM KCl in the NKR.
In all contraction experiments, isometric force production was determined and force produced during contractions was quantified by measuring the integral of the force response (AUC). Stimulation and force recordings have been described elsewhere^26. […] In these latter experiments, extracellular recordings of action potentials (M-waves) could be measured without temporal overlap with stimulation artefacts.
To initially confirm that inhibition of ClC-1 ion channels can be used to recover contractile force in muscle with reduced neuromuscular transmission, isolated nerve-muscle preparations were first exposed to either tubocurarine (FIG. 2A) or elevated Mg^2+ (FIG. 2B) and then a specific ClC-1 inhibitor (9-AC) was added. […]

The test system of data set [2] is isolated rat soleus muscles. In words: Recovery of nerve-stimulated force in isolated rat soleus muscles at elevated extracellular Mg2+ (3.5 mM). In kind it is cell-based. Conditions: muscle at elevated Mg2+ (3.5 mM); FIG. 2B. The procedure:
as §1
In all contraction experiments, isometric force production was determined and force produced during contractions was quantified by measuring the integral of the force response (AUC). Stimulation and force recordings have been described elsewhere^26. […] In these latter experiments, extracellular recordings of action potentials (M-waves) could be measured without temporal overlap with stimulation artefacts. […]
The next series of experiments determined whether the compounds that recovered nerve-stimulated force in the presence of tubocurarine could also recover nerve-stimulated force at elevated extracellular Mg^2+.

For data set [3], the system named is soleus muscles. In words: Mg2+ concentration required to depress nerve-stimulated force by 50% (Kd,Mg2+), combination treatments. In kind it is cell-based, rat. Conditions: C8 combined with 3,4-diaminopyridine. The procedure: FIG. 6. […] Muscles from 4-week-old rats were stimulated to contract by activating the motor nerve with short duration pulses in field stimulation. Muscles contracted every 10 min for 2 s in response to 30 Hz stimulation. Four different experimental conditions were used. […] C) similar to A) but this muscle had been pre-incubated with 3,4-AP. […] The force integral (AUC) was determined at each extracellular Mg^2+ concentration. AUC was plotted against Mg^2+ concentration and the data was fitted to a sigmoidal function (FIG. 6E). This provided the extracellular Mg^2+ concentration that was required to reduce the nerve-stimulated force to 50% (Mg50) under the four different conditions (see Table 5).
While the use of tubocurarine mimics conditions with reduced neuromuscular transmission due to post-synaptic dysfunction (myasthenia gravis, neuromuscular blockade), the experiments with elevated extracellular Mg^2+ mimics conditions with pre-synaptic dysfunction akin to a range of neuromuscular disorders including Lambert Eaton syndrome^26, motor neuron disorders^6-9 and polyneuropathy^18, 19. […] Based on this it was determined whether recovery of nerve-stimulated force at elevated extracellular Mg^2+ with ClC-1 inhibiting compounds could be added to force recovery with 3,4-AP. […] To quantify the effect of compounds on Mg^2+ sensitivity the force at the different Mg^2+ concentrations was determined. […]

Data set [4] has as its system rat soleus muscles. In kind it is cell-based. Particulars: 10 and 25 μM, compared to control conditions; 1 μM μ-conotoxin GiiiB.
Data set [5] concerns isolated human muscles. In kind it is cell-based. Particulars: 150 μM C8; elevated K+ and TTX.
Data set [6] is described as follows: Pharmacokinetic analysis of a single I.P. dose in rats. In kind it is in vivo. Particulars: rat, ip, single I.P. dose 10 mg/kg, Sprague-Dawley rats, plasma. The procedure: This part of the study was performed by Pipeline Biotech A/S (Spørring, Denmark). […] Plasma concentrations (free and bound) were determined by OnTarget Chemistry (Uppsala, Sweden, Project No.: PB243-001).
Before conducting in vivo experiments with animal models of myasthenia gravis, some pharmacokinetic details were obtained for C8 in response to one-bolus I.P. injection.

For data set [7], the system named is rats injected with tubocurarine. In words: Rotarod running performance of rats after I.P. tubocurarine (myasthenia like phenotype). Conditions: C8 20 mg/kg I.P. 2 hrs before tubocurarine 0.13 mg/kg I.P.; tested 21 minutes after tubocurarine; sham around 2%. In kind it is in vivo, rat. The procedure: FIG. 9. […] A) illustrates the design of the experiments. Prior to Day One the animals had been familiarized to the rotarod in three training sessions distributed over two days.
(§2) In both series of experiments, running performance was tested on a rotarod using a protocol where the rod was accelerated gradually over a 5 min period, and the running time and covered distance before falling off the rod were measured.
Experiments with tubocurarine were carried out over two days, and on each day the effect of tubocurarine on running performance was tested. On the first day only tubocurarine was injected. […] On the second day, the animals were first allowed to run on the rotarod, and all animals performed normally. […] The allocation of the animals into the two groups (C8 or sham) was random and unknown to the experimenter (blinded experimental design).
In the first series of in vivo experiments, myasthenia gravis was simply mimicked by I.P. injection of tubocurarine (0.13 mg/kg) in animals that had been familiarized to running on the rotarod. On the first of two consecutive days, tubocurarine was injected I.P. and the running performance of the animal was tested 21 minutes after this injection. On the second day of experimentation, the animals first performed a test run to ensure that they were no longer affected by the tubocurarine injected the day before. […]
Background: The rotarod test checks motor coordination on a turning rod.

The test system of data set [8] is rats injected with MAB35 monoclonal antibody. Put plainly: Rotarod running performance in passive immunization model of myasthenia gravis (MAB35). In kind it is in vivo, rat. Particulars: compared to sham. The procedure:
FIG. 10. […] Prior to I.P. injection of MAB35 the animals had been familiarized to the rotarod over three training sessions distributed over two days. […] After this treatment performance was monitored every second hour. *Indicates significant different as evaluated using student t-test.
as §2
In experiments with MAB35, animals were first familiarized with the rotarod over two consecutive days and then injected I.P. with MAB35. After injection, rotarod performance was then again monitored regularly over the consecutive two days. […] A considerable number of animals, however, became moribund failing to walk and they had altered ventilation (rapid) and pronounced ptosis. These animals were not included in experiments.
In the last series of experiments, myasthenia gravis was mimicked in rats by inducing an immunological reaction against the motor endplate of muscle fibers using monoclonal antibody against the nicotinic ACh receptor in muscle fibers. Again the animals had been familiarized to the rotarod before the MAB35 injection. […] From FIG. 10 it can be seen that upon injection sham treatment the performance further declined.

For the compound `O=C(O)c1c2ccccc2cc2ccccc12` [Compound 9-AC, reference compound], the “recovery of force and M-wave signal” value is “marked recovery of both force and M-wave signal” in data set [1] (muscle exposed to tubocurarine, FIG. 2A); “marked recovery of both force and M-wave signal” in data set [2].
For `C[C@H](Oc1ccc(Br)cc1)C(=O)O` [Compound C8, (2S)-2-(4-bromophenoxy)propanoic acid], the “nerve-stimulated force after addition of compound (in words)” value in data set [1] (50 μM added after 40 min in tubocurarine, FIG. 3A) was “recovered markedly”. The “effect of combination on recovery of neuromuscular transmission” value in data set [3] was “unexpected synergistic effect”. Further, the EPP amplitude entry in data set [4] is “significantly larger EPPs”. In addition, the contractile force entry in data set [5] is recorded as “markedly recovery”. Also, in data set [6], the AUC(0-t) came out at 204 µg·h/mL, the C0 came to 24500 ng/mL and the Cmax was 44600 ng/mL. For the same compound, in data set [6] (read-out: AUC 0-inf_obs), the AUC(0-inf) is 205 µg·h/mL. For the same compound, the half-life in data set [6] (read-out: t½ (converted)) was 3.7 h. In addition, the “increase in running distance on second day compared to first day” value in data set [7] is given as “around 150%”. Besides, the “rotarod running performance after injection” value in data set [8] (20 mg/kg C8 I.P.) is listed as “decline was reduced”. For the same compound, the “rotarod running performance after injection” value in data set [8] (30 mg/kg C8 I.P.) was “clear recovery of performance”.
